Experimental data taken from patent US20150087627A1, “COMBINATION OF KINASE INHIBITORS AND USES THEREOF” (Intellikine LLC, priority 2011, published 2015).

What was measured:
[1] = biological target: T1, PI3K α (p110α/p85α) (Homo sapiens, UniProt P42336); test: PI 3-Kinase (human) HTRF assay, PI3K α; type: biochemical; conditions: over mTOR and other PI3K isoforms; FIG. 6C
T1 construct: purchased Upstate / Millipore Corporation

[2] = system: preclinical breast cancer model; test: Preclinical breast cancer model, tumor weight / volume; type: in vivo; conditions: 70 mg/kg Pan-PI3K inhibitor; 60 mg/kg compound A; FIG. 9 left panel
[3] = system: B cell function; test: TNP-Ficoll immunization, antibody production (FIG. 8); type: in vivo; conditions: mice immunized with TNP-Ficoll, 7 days, 70 mg/kg GDC0941, 30, 60 or 120 mg/kg Compound A
Experimental: Mice were immunized with TNP-Ficoll and treated with 1) vehicle; 2) 70 mg/kg GDC0941; 3) 30 mg/kg Compound A; 4) 60 mg/kg Compound A; or 5) 120 mg/kg Compound A for 7 days. Antibody production was measured as a percentage of control group that were treated with vehicle.

[4] = system: MDA-MB-361, MDA-MB-453 and SKBr3 breast cancer cells; test: Western blot of PI3K pathway in cell lines with elevated PI3K α activity (FIG. 11); type: cell-based; conditions: cell lines with elevated PI3K α activity: MDA-MB-361, MDA-MB-453 (PIK3CA mutation), SKBr3 (HER2)
[5] = system: tumor cells harboring PI3K α mutations; test: Tumor cell proliferation panel (FIG. 13); type: cell-based
[6] = system: MDA-MB-361 (PI3Kα/HER2 carcinoma) tumors; test: In vivo efficacy in xenogenic mouse model of breast cancer; set-up: species or system Nude mice; conditions: 60 mg/kg, FIG. 9 left panel
Experimental: Blood glucose was monitored periodically following administration of treatment.
Treatment of tumors (MDA-MB-361) with compounds was discontinued on Day 30. Tumors were measured every 2-5 days.

[7] = system: marginal zone B cells; test: Marginal zone B cells in mouse spleen (FACS); type: in vivo; conditions: 60 mg/kg, spleens harvested 2 hrs after the last dose, FIG. 9
Experimental: The effect of the compounds on the localization/viability of marginal zone B cells in the spleen is also evaluated at the conclusion of treatment.
Spleens were harvested 2 hrs after the last dose, processed and stained with appropriate antibodies (marginal zone B cell: B220+;CD23−;CD21hi) and analyzed for staining on GUAVA EasyCyte FACS machine using Guava Cytosoft 5.2 software.

[8] = system: anti-TNP antibody production; test: TNP-Ficoll T-cell independent B-cell activation assay; type: in vivo, mice; conditions: 30, 60 or 120 mg/kg for 7 days, FIG. 8
Experimental: To test the effects of the compounds of the present invention in suppressing T cell independent antibody production, the TNP-Ficoll B-cell activation assay is used as described herein. Compounds of the present invention are dissolved in an appropriate vehicle (e.g. 5% 1-methyl-2-pyrrolidinone, 85% polyethylene glycol 400, 10% Solutor). Compounds are administered orally approximately 1 hr before TNP-Ficoll treatment to 4-10 week old mice. To study the effects of the compounds on B-cell activation, one set of mice are grouped according to the following table:
Four animals in group 1, and eight animals in groups 2 to 7 are euthanized in CO2 2 hours after the last compound administration on day 7. […]
Serum samples are analyzed for anti-TNP antibody titers by ELISA as described herein. […] HRP substrate (200 μl ABTS solution+30% H2O2+10 ml citrate buffer) is added to each well at 100 μl/well, incubated 2-20 minutes in the dark and the amount of anti-TNP IgG3 is determined spectrophotometrically at 405 nm. Similarly, anti-TNP IgM and total anti-TNP Ab are determined using anti-mouse IgM-HRP and anti-mouse Ig-HRP respectively.
Antibody production was measured using ELISA and plotted as a percentage of control group that were treated with vehicle.

[9] = Steady state blood glucose in nude mice (Example 41); type: in vivo, Mus musculus; conditions: mean AUC after the last dose (Day 28)
Experimental: Blood glucose levels were measured via a tail knick using Abbott's “Freestyle Lite” Handheld Blood Glucose Monitor (Abbott Laboratories) at 15, 30, 60, 90, 120, and 1440 minutes after the last dose (Day 28).

[10] = system: mTORC1-dependent NRDG1 phosphorylation; test: Western blot of NRDG1 phosphorylation (FIG. 5B); type: cell-based
[11] = system: Akt phosphorylation; test: Western blot of Akt phosphorylation at serine 473 and threonine 308 (FIG. 7); type: cell-based; conditions: serine 473 versus threonine 308
[12] = system: pAKT in PC3 cells; test: Inhibition of PI3K pathway, pAKT Western blot; type: cell-based, human; conditions: PC3 model, FIG. 7
Experimental: Cells comprising one or more mutations in PI3Kα, including but not limited to breast cancer cells (e.g., MDA-MB-361, T47D, SKOV-3), and cells comprising one or more mutations in PTEN including but not limited to prostate cancer cells (e.g., PC3), are typically grown in cell growth media such as DMEM supplemented with fetal bovine serum and/or antibiotics, and grown to confluency. Cells are then treated with various concentrations of test compound for about 2 hours and subsequently lysed in cell lysis buffer. Lysates are subjected to SDS-PAGE followed by Western blot analysis to detect downstream signaling markers, including but not limited to pAKT(S473), pAKT(T308), pS6, and p4E-BP1.

T1 sequence (P42336 whole entry, canonical isoform): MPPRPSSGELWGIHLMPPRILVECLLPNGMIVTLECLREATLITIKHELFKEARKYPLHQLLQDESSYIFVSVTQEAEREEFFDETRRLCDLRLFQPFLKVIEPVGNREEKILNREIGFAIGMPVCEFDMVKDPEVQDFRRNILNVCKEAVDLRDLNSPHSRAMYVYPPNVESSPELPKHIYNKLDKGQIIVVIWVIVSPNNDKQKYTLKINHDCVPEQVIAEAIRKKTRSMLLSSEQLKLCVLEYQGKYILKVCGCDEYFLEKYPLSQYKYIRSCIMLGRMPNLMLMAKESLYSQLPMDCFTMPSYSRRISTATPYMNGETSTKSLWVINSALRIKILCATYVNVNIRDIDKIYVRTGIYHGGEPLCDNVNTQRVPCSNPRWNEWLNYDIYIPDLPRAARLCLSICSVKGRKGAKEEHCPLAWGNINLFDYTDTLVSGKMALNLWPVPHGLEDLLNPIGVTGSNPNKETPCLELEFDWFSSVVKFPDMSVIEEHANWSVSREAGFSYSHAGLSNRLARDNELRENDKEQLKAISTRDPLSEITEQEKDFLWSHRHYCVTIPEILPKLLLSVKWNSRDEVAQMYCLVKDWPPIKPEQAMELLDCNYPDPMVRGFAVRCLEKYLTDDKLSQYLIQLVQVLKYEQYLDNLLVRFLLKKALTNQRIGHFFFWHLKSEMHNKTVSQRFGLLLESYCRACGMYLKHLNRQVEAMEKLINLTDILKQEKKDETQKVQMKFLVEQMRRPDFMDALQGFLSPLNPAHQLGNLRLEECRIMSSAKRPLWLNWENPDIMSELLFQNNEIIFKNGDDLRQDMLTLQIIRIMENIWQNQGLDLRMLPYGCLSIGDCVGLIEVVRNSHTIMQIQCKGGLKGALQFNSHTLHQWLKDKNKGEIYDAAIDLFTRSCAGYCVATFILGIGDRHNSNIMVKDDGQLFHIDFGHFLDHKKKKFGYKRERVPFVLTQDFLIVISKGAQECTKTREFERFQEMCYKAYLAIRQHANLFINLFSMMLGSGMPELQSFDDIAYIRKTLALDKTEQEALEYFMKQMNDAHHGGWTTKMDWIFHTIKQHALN
T1 sequence (P27986 whole entry partner, canonical isoform): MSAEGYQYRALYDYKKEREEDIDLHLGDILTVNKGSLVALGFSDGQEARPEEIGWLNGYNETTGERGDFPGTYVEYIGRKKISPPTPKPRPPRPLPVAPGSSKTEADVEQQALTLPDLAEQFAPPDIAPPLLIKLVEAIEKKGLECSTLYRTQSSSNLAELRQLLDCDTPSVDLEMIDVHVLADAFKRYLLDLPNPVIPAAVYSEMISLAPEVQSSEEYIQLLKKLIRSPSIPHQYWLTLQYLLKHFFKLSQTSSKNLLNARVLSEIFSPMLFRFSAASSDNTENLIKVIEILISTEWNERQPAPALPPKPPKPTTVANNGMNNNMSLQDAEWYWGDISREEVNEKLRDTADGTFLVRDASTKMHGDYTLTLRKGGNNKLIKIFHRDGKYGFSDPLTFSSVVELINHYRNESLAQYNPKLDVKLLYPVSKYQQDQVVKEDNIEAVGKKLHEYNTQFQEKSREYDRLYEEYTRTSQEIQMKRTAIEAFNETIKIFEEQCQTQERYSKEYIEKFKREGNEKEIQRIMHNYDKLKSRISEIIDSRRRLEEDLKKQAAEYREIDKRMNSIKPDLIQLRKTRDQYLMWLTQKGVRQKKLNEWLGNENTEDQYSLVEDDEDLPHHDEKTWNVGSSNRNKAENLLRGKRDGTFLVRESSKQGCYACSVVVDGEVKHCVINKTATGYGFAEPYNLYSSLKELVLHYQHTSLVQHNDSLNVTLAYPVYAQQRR

Row | SMILES | specificity in inhibiting PI3K α [1] | tumor weight of a breast cancer model [2] | B cell function in vivo (antibody production as percentage of vehicle control) [3] | inhibition of the PI3K pathway [4] | proliferation of tumor cells [5] | tumor weight [6] | localization/viability of marginal zone B cells [7] | B cell function in vivo (antibody production, ELISA) [8] | Blood Glucose Fold Over Vehicle Control ([9]; 60 mg/kg QD) [fold] | Blood Glucose Fold Over Vehicle Control ([9]; 70 mg/kg QD 3on/4off) [fold] | Blood Glucose Fold Over Vehicle Control ([9]; 140 mg/kg QD 3on/4off) [fold] | Blood Glucose Fold Over Vehicle Control ([9]; 210 mg/kg QW) [fold] | sensitivity of mTORC1-dependent NRDG1 phosphorylation [10] | inhibition of Akt phosphorylation [11] | inhibition of Akt phosphorylation, serine 473 vs threonine 308 [12]
1 | Nc1nc2cc(-c3ccc4ncc(C(=O)N5CCOCC5)n4c3)ccc2o1 [Compound A] | specificity of Compound A in inhibiting PI3K α over mTOR and other PI3K isoforms | reduction in tumor weight | not | inhibition of the PI3K pathway | preferentially inhibits proliferation of tumor cells harboring PI3K α mutations | reduction in tumor weight | does not affect | not | 0.97 | 1.02 | 1.26 | 1.16 | – | – | –
2 | CC(C)n1nc(-c2ccc3oc(N)nc3c2)c2c(N)ncnc21 [Compound B] | – | – | – | – | – | – | – | – | – | – | – | – | sensitivity | differential inhibition of Akt phosphorylation at serine 473 over threonine 308 | differential inhibition of Akt phosphorylation at serine 473 over threonine 308
